Results published in patent US20220362227A1, “COMPOSITION OF PHYTONUTRIENTS FOR DIABETES MANAGEMENT” (ROSEMAN UNIVERSITY OF HEALTH SCIENCES, priority 2021, published 2022).

Key:
[1] = test system: primary human preadipocytes; experiment: Adipogenesis assay (adipogenic biomarkers, Oil Red O staining); format: cell-based; conditions: for EC50: read-out: EC50 (anti-adipogenic phytonutrients)
Description: Adipogenesis Assays. Primary human preadipocytes were grown to confluence in growth media. At 2 days post-confluence, growth media were aspirated off the culture dishes and complete differentiation media were added. Complete differentiation media comprise […] with 18.5 mM glucose, HEPES (15 mM), NaHCO3 (25 mM), 100 units/ml penicillin, 100 μg/ml streptomycin, d-biotin (33 μM), pantothenate (17 μM), dexamethasone (100 nM), insulin (100 nM), rosiglitazone (1 μM), IBMX (0.5 mM), triiodothyronine (T3, 2 nM), and transferrin (10 μg/ml). On day three post-differentiation, complete differentiation media were replenished. On day seventh post-differentiation, complete differentiation media were replaced with maintenance media. Maintenance media comprise […], 100 units/ml penicillin, 100 μg/ml streptomycin, HEPES (15 mM), NaHCO3 (25 mM), d-biotin, pantothenate, insulin (10 nM), and dexamethasone (10 nM). Maintenance media were replenished on days tenth post-differentiation. Complete differentiation of preadipocytes into adipocytes were achieved on day fourteenth post-differentiation. To screen for anti-adipogenic phytonutrients, individual phytonutrients were mixed in complete differentiation media from day 0 to day 6th post-differentiation. Phytonutrients were removed together with complete differentiation media on day 7th post-differentiation following the replacement with maintenance media. Anti-adipogenic phytonutrients were identified based on their ability to: (1) suppress the expression of adipogenic biomarkers using proteomic assays of total cell extracts collected on day 6th post-differentiation, and (2) suppress intracellular lipid droplet accumulation using Oil Red O staining assays on day 14th post-differentiation.

Akt1 = experiment: cIEF immunoassays of Akt1; format: cell-based, human; conditions: for Akt1 cIEF electropherogram: treatment alone, 30 minutes, versus untreated
Text: (§1) Mapping Akt Isoforms Using Capillary Isoelectric Focusing (cIEF) Immunoassays. cIEF immunoassays separate proteins in total cell extracts (TCEs) by their isoelectric points (pIs) in nano-capillaries. The positions of the proteins are stabilized via UV-irradiated crosslinking of proteins to the sidewalls of the capillaries. A primary antibody that recognizes a specific protein of interest is introduced to individual capillaries. Then a secondary antibody linked to horseradish peroxidase is introduced. Following the introduction of the chemiluminescent substrates, the distribution of the isoforms of a protein is detected and presented graphically as electropherograms of intensity versus isoelectric points. Phosphorylation and acetylation of a protein generally leads to shifts toward lower pI values. In contrast, glycosylation of a protein generally leads to a shift toward higher pI values.
(§2) Screening for Insulin-Sensitizing Phytonutrients. Primary human preadipocytes were treated for 30 minutes with 100 nM insulin (Humulin R, Eli Lilly, Indianapolis, Ind.), individual phytonutrients (Table 1 & Table 2), or combinations of insulin and phytonutrients. Total cell extracts (TCE) were collected and subjected to nanofluidic proteomic analysis including capillary isoelectric focusing (cIEF) immunoassays and capillary Western (CW) immunoassays.
(§3) Preparation of Total Cell Extracts. Approximately one million cells were incubated on ice for 10 minutes with 60 μl of lysis buffer (cat. no. 040-764, ProteinSimple, Santa Clara, Calif., USA), sonicated 4 times for 5 seconds each, mixed by rotation for 2 hours at 4° C., and centrifuged at 12,000 rpm in an Eppendorf 5430R microfuge for 20 minutes at 4° C. […] The total protein concentration in the cell lysate was determined with a Bradford protein assay and adjusted to a final concentration of 0.3 μg/μl with separation gradients (cat. no. Premix G2, pH 5-8, ProteinSimple, Santa Clara, Calif.) for charge-based cIEF immunoassays or to 0.4 μg/μl with denaturing buffers (cat. no. PS-ST01EZ or PS-ST03EZ, ProteinSimple) for size-based Western immunoassays. […]

Akt3 = experiment: cIEF immunoassays of Akt3; format: cell-based, human; conditions: for Akt3 cIEF electropherogram: treatment alone, 30 minutes, versus untreated
Text: as §1, §2, §3

Akt2 = experiment: Screening for insulin-sensitizing phytonutrients: cIEF immunoassays of Akt2 phosphorylation; format: cell-based, human; conditions: for Akt2 phosphorylation on cIEF electropherogram: treatment alone, 30 minutes, versus untreated control; for EC50: half-maximal effective concentration, primary human preadipocytes; for increase of insulin-stimulated pAkt2 (Ser473) phosphorylation: together with 100 nM insulin, compared to insulin alone, cIEF
Text: as §1
(§4) Human Primary Preadipocytes. Primary human preadipocytes were isolated from omental adipose tissues overweight and diabetic donors who were undergoing elective surgery using a previously published protocol. Primary human preadipocytes were maintained in growth media comprising Minimum Essential Medium a supplemented with 10% fetal bovine serum, 100 units/ml penicillin, and 100 μg/ml streptomycin.
as §2
(§5) Preparation of Total Cell Extracts. Approximately one million cells were incubated on ice for 10 minutes with 60 μl of lysis buffer (cat. no. 040-764, ProteinSimple, Santa Clara, Calif., USA), sonicated 4 times for 5 seconds each, mixed by rotation for 2 hours at 4° C., and centrifuged at 12,000 rpm in an Eppendorf 5430R microfuge for 20 minutes at 4° C. The supernatant was collected as the cell lysate. The total protein concentration in the cell lysate was determined with a Bradford protein assay and adjusted to a final concentration of 0.3 μg/μl with separation gradients (cat. no. Premix G2, pH 5-8, ProteinSimple, Santa Clara, Calif.) for charge-based cIEF immunoassays or to 0.4 μg/μl with denaturing buffers (cat. no. PS-ST01EZ or PS-ST03EZ, ProteinSimple) for size-based Western immunoassays.
(§6) Capillary Isoelectric Focusing Immunoassays. Cell lysates in separation gradients were loaded into 384-well assay plates (cat. no. 040-663, ProteinSimple) preloaded with primary and secondary antibodies and chemiluminescent substrates. Charge-based protein separation and detection in individual capillaries were performed using the default protocols of the NanoPro 1000 system (ProteinSimple). Hsp70 was used as the loading control. All cIEF immunoassays were performed in triplicate for each protein, and duplicate experiments were performed for each treatment condition, producing six repeated measurements per protein.

Akt = experiment: Capillary Western and cIEF immunoassays of pAkt (Thr308), pAkt (Thr450), pAkt (Ser473); format: cell-based, human; conditions: for increase of pAkt (Ser473) phosphorylation / increase of pAkt (Thr308) phosphorylation / increase of pAkt (Thr450) phosphorylation: 30 minutes treatment, versus untreated control, capillary Western densitometry
Description: as §4, §2, §5, §6
Capillary Western Immunoassays. Cell lysates in denaturing buffers were denatured at 95° C. for 5 minutes, and then transferred to assay plates (cat. no. SM-W004 or SM-W008, ProteinSimple) preloaded with blocking reagents, wash buffer, primary and secondary antibodies, and chemiluminescent substrates. Sized-based protein separation and detection in capillaries were performed using the default protocols of the Jess system (ProteinSimple). β-Actin was used as loading controls. All capillary Western immunoassays were performed in triplicate for each protein, and duplicate experiments were performed for each treatment condition, producing six repeated measurements per protein.

[2] = test system: primary human preadipocytes; experiment: Glucose uptake assay (2-NBDG, flow cytometry); format: cell-based; conditions: together with 100 nM insulin, compared to insulin alone, 30 minutes
Description: The glucose uptake assay used 2-NBDG, a fluorescently-labeled deoxyglucose analog, as a probe for the detection of glucose taken up by human primary preadipocytes. Flow cytometry was used to detect 2-NBDG uptake in single preadipocytes.
Glucose Uptake Assays. Primary human preadipocytes grown to 70% confluence in growth media, washed with phosphate buffered saline, and replaced with glucose-free DMEM media. Following 2 hours of incubation in glucose-free DMEM media, preadipocytes were treated with 100 μg/ml of 2-NDBG fluorescent glucose analog and insulin (100 nM) or phytonutrients (EC50) for 30 minutes. Preadipocytes were collected and analyzed using the Acuri C6 flow cytometer (BD Biosciences, San Jose, Calif.) and the 485 nm excitation and 535 nm emission filters.

[3] = half-maximal effective concentration, primary human preadipocytes
[4] = together with insulin, compared to insulin alone

Compound: Fucoidan
- EC50 (anti-adipogenic phytonutrients) [1, 3]: 100 µg/mL

Compound: O=c1cc(-c2ccc(O)c(O)c2)oc2cc(O)cc(O)c12 [Luteolin]
- EC50 [1, 3]: 20 µM

Compound: insulin: 100 nM insulin (Humulin R, Eli Lilly) [reference compound]
- Akt1 cIEF electropherogram (Akt1): nearly identical
- Akt3 cIEF electropherogram (Akt3): two new peaks at pI 5.03 and pI 5.12
- Akt2 phosphorylation on cIEF electropherogram (Akt2): two new peaks at pI 5.20 and pI 5.30
- increase of pAkt (Ser473) phosphorylation (Akt): ~5.7 folds
- increase of pAkt (Thr308) phosphorylation (Akt): approximately 3 folds
- increase of pAkt (Thr450) phosphorylation (Akt): ~1.6 folds

Compound: COc1cc(/C=C/C(=O)CC(=O)/C=C/c2ccc(O)c(OC)c2)ccc1O [Curcumin]
- increase of insulin-stimulated glucose uptake by preadipocytes [2]: ~1.7 folds
- EC50 (Akt2): 20 µM
- increase of insulin-stimulated pAkt2 (Ser473) phosphorylation (Akt2): approximately 4 folds
- Akt2 phosphorylation on cIEF electropherogram (Akt2): new peak at pI 5.41

Compound: O=C(O[C@@H]1Cc2c(O)cc(O)cc2O[C@@H]1c1cc(O)c(O)c(O)c1)c1cc(O)c(O)c(O)c1 [Epigallocatechin Gallate]
- EC50 [1, 3]: 20 µM

Compound: O=CC=Cc1ccccc1 [Cinnamaldehyde]
- phosphorylation of Akt1 on cIEF electropherogram (Akt1; [4]): no observable effect
- Akt1 cIEF electropherogram (Akt1): no observable effect
- increase of insulin-stimulated glucose uptake by preadipocytes [2]: approximately 1.6 folds
- phosphorylation of Akt3 on cIEF electropherogram (Akt3; [4]): no observable effect
- Akt3 cIEF electropherogram (Akt3): no observable effect
- EC50 (Akt2): 40 µM
- Akt2 phosphorylation on cIEF electropherogram (Akt2): new peak at pI 5.41
- increase of pAkt (Ser473) phosphorylation (Akt): no effect
- increase of pAkt (Thr308) phosphorylation (Akt): no effect
- increase of pAkt (Thr450) phosphorylation (Akt): 1.6 folds
- increase of insulin-stimulated pAkt (Ser473) phosphorylation (Akt; together with 100 nM insulin, compared to insulin alone, cIEF and CW immunoassays): ~4 folds

Compound: Oc1ccc(C=Cc2cc(O)cc(O)c2)cc1 [Resveratrol]
- EC50 [1, 3]: 40 µM

Compound: O=c1c(O)c(-c2ccc(O)c(O)c2)oc2cc(O)ccc12 [Fisetin]
- EC50 [1, 3]: 50 µM

Compound: OCc1c[nH]c2ccccc12 [Indole-3-Carbinol]
- EC50 [1, 3]: 20 µM

Compound: O=c1c(O)c(-c2ccc(O)c(O)c2)oc2cc(O)cc(O)c12 [Quercetin]
- EC50 [1, 3]: 25 µM

Compound: COc1ccc([C@@H]2CC(=O)c3c(O)cc(O[C@@H]4O[C@H](CO[C@@H]5O[C@@H](C)[C@H](O)[C@@H](O)[C@H]5O)[C@@H](O)[C@H](O)[C@H]4O)cc3O2)cc1O [Hesperidin]
- EC50 [1, 3]: 20 µM

Compound: COc1ccc2cc3[n+](cc2c1OC)CCc1cc2c(cc1-3)OCO2 [Berberine]
- increase of insulin-stimulated glucose uptake by preadipocytes [2]: no effect
- inhibition of adipogenesis ([1]; differentiating primary human preadipocytes): strong inhibitor of adipogenesis
- EC50 [1, 3]: 10 µM
- increase of insulin-stimulated pAkt2 (Ser473) phosphorylation (Akt2): no effect
- Akt2 phosphorylation on cIEF electropherogram (Akt2): no effect
